This note sets out measurements from PubChem BioAssay AID1996.

Broadly, the kinetic solubility is the concentration staying in solution when a stock, usually in DMSO, is diluted into the medium.

In brackets after ≈: the same amount, converted by molar mass.

The conditions of this data set: buffer; pH 7.4; 200.0 µM.
For `COc1cccc(CNC(=O)CCSCc2ccccc2F)c1`, the kinetic solubility is 41.8 µg/mL (≈ 125 µM). `Cc1ccc(NC(=O)c2cccnc2)c([N+](=O)[O-])c1` had a solubility (kinetic) greater than 38.6 µg/mL. Then `O=C(NCC(c1ccco1)N1CCOCC1)c1ccc([N+](=O)[O-])cc1` (configuration not stated), with greater than 51.8 µg/mL. In turn, `COc1ccc(NC(=O)CNC(=O)Cc2cccc3ccccc23)cc1` displayed a kinetic solubility of 4.3 µg/mL (≈ 12.3 µM). Then `COc1ccc2nc(SCC(=O)NCC3CCCO3)c(C#N)cc2c1` (configuration not stated), with 5.2 µg/mL (≈ 14.5 µM); and `CCCSc1nc2sc3c(c2c(=O)[nH]1)CC(C)(CC)OC3` (configuration not stated), with 1.5 µg/mL (≈ 4.62 µM); and `Cc1onc(-c2c(Cl)cccc2Cl)c1/C(N)=N/OC(=O)N(C)C`, with greater than 53.6 µg/mL. `CNc1nc2c(c(=O)n(C)c(=O)n2C)n1CCCc1ccccc1`: the solubility (kinetic) is greater than 49.1 µg/mL. `COc1cccc(C2NC(=O)CCC2[N+](=O)[O-])c1` (configuration not stated) yielded a solubility (kinetic) greater than 37.5 µg/mL.

With `Cl.O=C(CN1CCCCC1)Nc1cccc(Cl)c1`, the kinetic solubility is 33.6 µg/mL. `CC(C)c1ccc(NC2CCCN(C(=O)c3ccco3)C2)cc1` (configuration not stated) came in with a solubility (kinetic) greater than 46.9 µg/mL. Compound `COc1cc(C)ccc1OCC(=O)NC1CCCCCC1` came in with a solubility (kinetic) of 40.5 µg/mL (≈ 139 µM). `Cc1cccc(-n2ccc(=O)c(C(=O)O)n2)c1` registered a solubility (kinetic) greater than 34.5 µg/mL. `COC(=O)c1cc(NC(=O)c2cccnc2)ccc1N1CCOCC1` registered a solubility (kinetic) greater than 51.2 µg/mL. In the case of `CC(=O)Nc1ccc(NC(=O)Cn2ccc([N+](=O)[O-])n2)cc1`, the kinetic solubility is greater than 45.5 µg/mL. Compound `COc1ccc(C(=O)Nc2ccc(NC(=O)C3CC3)cn2)cc1` yielded a solubility (kinetic) of 5.8 µg/mL (≈ 18.6 µM). In turn, `CC1CC(C)CN(C(=O)c2ccc3ncsc3c2)C1` (configuration not stated) returned a solubility (kinetic) greater than 41.2 µg/mL. Then `Cc1ccc(NP(=O)(c2ccccc2)c2nc3ccccc3s2)cc1` (configuration not stated), with 2.2 µg/mL (≈ 6.04 µM).

`CCOc1ccccc1NC(=S)NCCCn1ccnc1`: the solubility (kinetic) is 42.1 µg/mL (≈ 138 µM).

Regarding `CC(C)CC(=O)N1CCN(C(=O)c2ccco2)CC1`, the kinetic solubility was greater than 39.6 µg/mL.

In turn, `CCOC(=O)C1=C(O)C(=O)N(c2ccccc2)C1c1cccc([N+](=O)[O-])c1` (configuration not stated) showed a solubility (kinetic) of 52 µg/mL (≈ 141 µM). As for `COc1cc(=O)[nH]c(SC(C)C(=O)Nc2ccc3ccccc3c2)n1` (configuration not stated), the kinetic solubility is 0.8 µg/mL (≈ 2.25 µM).

As for `CCC(=O)Nc1cc2c3c(c1)CCN3C(=O)CC2`, the kinetic solubility worked out at 35.3 µg/mL (≈ 144 µM). Turning to `NCCc1nc2ccccc2s1`, the solubility (kinetic) worked out at 23.2 µg/mL (≈ 130 µM). Then `Cc1cc(NC(=O)COC(=O)c2cccc(O)c2)no1`, with greater than 41.4 µg/mL. With `CCOC(=O)c1c(N)sc2c1CCCC2=O`, the kinetic solubility was 34.7 µg/mL (≈ 145 µM). Then `COc1ccc(Cl)cc1NC(=O)/C=C/C(=O)O`, with greater than 38.3 µg/mL; and `Cc1cc(C)c(C)c(S(=O)(=O)N2CCCN(C)CC2)c1C`, with greater than 46.6 µg/mL; and `Cn1cc(Br)c(C(=O)N2CCCCCC2)n1`, with greater than 42.9 µg/mL. `COc1ccccc1CNC(=O)/C=C/C(=O)O` came in with a solubility (kinetic) greater than 35.3 µg/mL.

`S=C(Nc1cccc(Cl)c1Cl)N1CCCC1`: the solubility (kinetic) stood at 15.7 µg/mL (≈ 57 µM). The result for `Cc1c2c(n3c(nc4ccccc43)c1C#N)N(CCN(C)C)CC2` reads greater than 47.9 µg/mL; that for `CC(NC(=O)c1cccs1)C1CCCO1` (configuration not stated), greater than 33.8 µg/mL. Regarding `CN1CCN(C(=O)c2cc3ccccc3[nH]2)CC1`, the kinetic solubility was greater than 36.5 µg/mL. Regarding `COC(=O)C1=C(C)NC(=O)NC1c1ccc2c(c1)OCO2` (configuration not stated), the solubility (kinetic) amounted to 37.3 µg/mL (≈ 128 µM). Then `O=C(Cn1c(=O)cnc2ccccc21)Nc1cc(Cl)ccc1N1CCOCC1`, with 51.6 µg/mL (≈ 129 µM); and `c1ccc(CN2CCc3nc4ccccc4cc3C2)cc1`, with 33.2 µg/mL (≈ 121 µM); and `COc1ccc(CNC(=O)CC(C)c2ccccc2)cc1` (configuration not stated), with 36.9 µg/mL (≈ 130 µM). Turning to `Cc1ccc2ncnc(-c3ccccc3)c2c1`, the kinetic solubility turned out to be 25.5 µg/mL (≈ 116 µM). Then `N#C/C(=C\c1cccs1)C(=O)N1CCOCC1`, with 35.5 µg/mL (≈ 143 µM); and `Cc1nc(C(=O)NCC(=O)c2ccccc2)c(C(F)(F)F)o1`, with greater than 46.8 µg/mL. Then `CC(C)(C)c1ccc(C(=O)N2CCCC2)s1`, with greater than 35.6 µg/mL.
